Measurements: US20090233957A1, “(-)-BELOXEPIN AND METHODS FOR ITS SYNTHESIS AND USE” (priority 2008, published 2009)

Legend:
[1] = molecular target: T1, cloned human NE transporter (hNET) (Homo sapiens, UniProt P23975); assay: NE transporter binding assay, [3H]nisoxetine; details: membranes of CHO cells expressing hNET; read-out: NET Ki
T1 construct: expressed in transfected cells; host or cells: CHO cells
Procedure: Protocols. For the NE transporter binding assay, [^3H]nisoxetine (1.0 nM) was incubated with various concentrations of test compounds for 2 hours at 4° C. with membranes prepared from Chinese hamster ovary cells (CHO) cells heterologously expressing the cloned human NE transporter (hNET). Bound radioactivity was determined by scintillation spectroscopy.

[2] = molecular target: T2, cloned human 5HT2A receptor (Homo sapiens, UniProt P28223); assay: 5HT2A receptor binding assay, [3H]ketanserin; details: HEK-293 membranes
T2 construct: expressed in transfected cells; host or cells: HEK-293 cells
Procedure: For the 5HT2A receptor binding assay, [^3H]ketanserin (0.5 nM) was incubated for 60 min at 22° C. with membranes prepared from HEK-293 cells heterologously expressing the cloned human 5-HT2A receptor according to the method of Bonhaus et al., 1995, Brit. J. Pharmacol. 115:622-628. Various concentrations of test compound were added and bound radioactivity was determined by scintillation counting. Non-specific binding was determined in the presence of 1.0 μM unlabeled ketanserin. The Ki value for the test compound was determined using standard methods.

[3] = molecular target: T2, cloned human 5HT2A receptor; assay: 5HT2A functional assay, intracellular Ca2+ in HEK-293 cells; format: cell-based
Procedure: (§1) Agonist effects at the 5HT2A receptor were assessed by incubation at 22° C. of a series of concentrations of test compound with intact HEK-293 cells heterologously expressing the cloned human 5HT2A receptor and measuring intracellular [Ca^2+] by fluorimetry according to the method of Jerman et al., 2001, Eur. J. Pharmacol. 414:23-30). Antagonist effects were assessed by the ability of a series of concentrations of test compound to block the increase in intracellular [Ca^2+] that occurred in the presence of 3.0 nM serotonin under the same conditions. EC50 and IC50 values were determined using standard methods.

[4] = molecular target: T3, cloned human 5HT2B receptor (Homo sapiens, UniProt P41595); assay: 5HT2B receptor binding assay, [125I]DOI; details: CHO membranes
T3 construct: expressed in transfected cells; host or cells: CHO cells
Procedure: For the 5HT2B receptor binding assay, [^125I](±)[…] (DOI) (0.2 nM) was incubated for 15 min at 37° C. with membranes prepared from Chinese hamster ovary cells heterologously expressing the cloned human 5HT2B receptor according to the method of Choi et al., 1994, FEBS Lett 352:393-399. Various concentrations of test compound were added and bound radioactivity was determined by scintillation counting. Non-specific binding was determined in the presence of 1.0 μM unlabeled DOI. The Ki value for the test compound was determined using standard methods.

[5] = molecular target: T3, cloned human 5HT2B receptor; assay: 5HT2B functional assay, intracellular Ca2+ in CHO cells; format: cell-based
Procedure: as §1, with “5HT2B” for “5HT2A”, “CHO” for “HEK-293”, “Porter” for “Jerman”, “1991, Brit.” for “2001, Eur.”, “128:13-20.” for “414:23-30).”, “0.3” for “3.0”

[6] = molecular target: T4, cloned human 5HT2C receptor (Homo sapiens, UniProt P28335); assay: 5HT2C receptor binding assay, [3H]mesulergine; details: CHO membranes
T4 construct: expressed in transfected cells; host or cells: CHO cells
T4 sequence (P28335 33-458): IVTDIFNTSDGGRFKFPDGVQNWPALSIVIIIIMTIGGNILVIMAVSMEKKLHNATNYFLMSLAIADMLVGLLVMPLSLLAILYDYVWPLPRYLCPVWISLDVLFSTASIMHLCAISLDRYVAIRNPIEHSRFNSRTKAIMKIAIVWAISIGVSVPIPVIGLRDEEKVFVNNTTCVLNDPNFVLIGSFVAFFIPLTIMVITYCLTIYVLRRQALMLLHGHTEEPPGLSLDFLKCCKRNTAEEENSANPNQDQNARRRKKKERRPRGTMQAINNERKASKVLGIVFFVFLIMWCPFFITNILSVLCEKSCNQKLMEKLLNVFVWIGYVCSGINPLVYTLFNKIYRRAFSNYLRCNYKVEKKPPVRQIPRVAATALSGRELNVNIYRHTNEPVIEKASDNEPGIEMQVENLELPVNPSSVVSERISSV
Procedure: For the 5HT2C receptor binding assay, [^3H]mesulergine (1.0 nM) was incubated for 60 min at 37° C. with membranes prepared from Chinese hamster ovary cells heterologously expressing the cloned human 5-HT2C receptor according to the method of Stam et al., 1994, Eur. J. Pharmacol. 269:339-348. Various concentrations of test compound were added and bound radioactivity was determined by scintillation counting. Non-specific binding was determined in the presence of 10 μM RS102221. The Ki value for the test compound was determined using standard methods.

[7] = molecular target: T4, cloned human 5HT2C receptor; assay: 5HT2C functional assay, intracellular Ca2+ in CHO cells; format: cell-based
Procedure: as §1, with “5HT2C” for “5HT2A”, “CHO” for “HEK-293”, “414:23-30.” for “414:23-30).”

[8] = molecular target: T5, human recombinant CYP2D6 (Homo sapiens, UniProt P10635); assay: CYP2D6 inhibition, MAMC substrate; format: in vitro ADME
T5 construct: purchased BD Bioscience
Procedure: Protocol. […] The source of the enzyme was microsomes containing human recombinant CYP2D6 obtained from BD Bioscience. Conversion of MAMC to 7-hydroxy-4-(aminomethyl)coumarin was measured using a PerkinElmer Fusion with a 390 nm excitation filter and a 460 nm emission filter.

[9] = tested on: noradrenaline reuptake in synaptosomes from rat and primate brain; details: published reports; cited from earlier work
[10] = molecular target: T6, 5HT2C receptor (Homo sapiens, UniProt P28335); details: published report; cited from earlier work
T6 sequence (P28335 33-458): T4 sequence (P28335 33-458)

[11] = tested on: noradrenergic, histaminergic and cholinergic receptors; details: published report; cited from earlier work
[12] = tested on: animal models of depression; details: preclinical; cited from earlier work
[13] = tested on: human volunteers; details: 25-400 mg, cited from earlier work
[14] = single doses of 10 to 500 mg; cited from earlier work
[15] = cited from earlier work
[16] = tested on: patients hospitalized for depression; details: phase IIA; cited from earlier work
[17] = tested on: major depression; details: human, in vivo; cited from earlier work
[18] = in vivo; cited from earlier work
[19] = antagonist mode, vs 3.0 nM serotonin

T3 sequence (P41595 whole entry): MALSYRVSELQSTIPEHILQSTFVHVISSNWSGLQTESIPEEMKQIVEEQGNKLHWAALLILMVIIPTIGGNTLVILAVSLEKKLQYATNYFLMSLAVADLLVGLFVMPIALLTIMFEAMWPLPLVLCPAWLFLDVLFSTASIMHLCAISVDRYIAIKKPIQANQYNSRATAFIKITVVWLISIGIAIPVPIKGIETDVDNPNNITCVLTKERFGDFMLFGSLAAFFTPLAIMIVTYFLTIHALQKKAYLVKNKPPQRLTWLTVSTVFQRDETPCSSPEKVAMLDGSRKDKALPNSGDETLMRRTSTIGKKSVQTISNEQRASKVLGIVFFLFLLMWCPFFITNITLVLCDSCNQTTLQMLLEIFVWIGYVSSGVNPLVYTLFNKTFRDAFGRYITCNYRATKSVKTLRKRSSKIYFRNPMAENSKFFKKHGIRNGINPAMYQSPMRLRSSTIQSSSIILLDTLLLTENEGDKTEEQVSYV
T2 sequence (P28223 whole entry): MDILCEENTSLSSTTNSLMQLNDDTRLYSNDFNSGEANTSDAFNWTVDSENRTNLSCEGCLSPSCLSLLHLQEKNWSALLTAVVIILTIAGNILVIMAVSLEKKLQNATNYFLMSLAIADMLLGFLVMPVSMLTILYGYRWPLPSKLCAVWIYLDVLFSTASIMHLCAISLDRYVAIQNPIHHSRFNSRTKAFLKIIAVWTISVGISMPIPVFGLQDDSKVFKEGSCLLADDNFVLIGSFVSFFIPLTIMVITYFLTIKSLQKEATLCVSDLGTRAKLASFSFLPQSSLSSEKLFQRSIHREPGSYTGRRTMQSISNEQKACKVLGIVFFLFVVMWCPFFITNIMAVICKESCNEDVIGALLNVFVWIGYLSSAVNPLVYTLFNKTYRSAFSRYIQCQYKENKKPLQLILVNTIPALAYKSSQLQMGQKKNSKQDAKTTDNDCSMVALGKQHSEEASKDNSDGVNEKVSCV
T1 sequence (P23975 whole entry): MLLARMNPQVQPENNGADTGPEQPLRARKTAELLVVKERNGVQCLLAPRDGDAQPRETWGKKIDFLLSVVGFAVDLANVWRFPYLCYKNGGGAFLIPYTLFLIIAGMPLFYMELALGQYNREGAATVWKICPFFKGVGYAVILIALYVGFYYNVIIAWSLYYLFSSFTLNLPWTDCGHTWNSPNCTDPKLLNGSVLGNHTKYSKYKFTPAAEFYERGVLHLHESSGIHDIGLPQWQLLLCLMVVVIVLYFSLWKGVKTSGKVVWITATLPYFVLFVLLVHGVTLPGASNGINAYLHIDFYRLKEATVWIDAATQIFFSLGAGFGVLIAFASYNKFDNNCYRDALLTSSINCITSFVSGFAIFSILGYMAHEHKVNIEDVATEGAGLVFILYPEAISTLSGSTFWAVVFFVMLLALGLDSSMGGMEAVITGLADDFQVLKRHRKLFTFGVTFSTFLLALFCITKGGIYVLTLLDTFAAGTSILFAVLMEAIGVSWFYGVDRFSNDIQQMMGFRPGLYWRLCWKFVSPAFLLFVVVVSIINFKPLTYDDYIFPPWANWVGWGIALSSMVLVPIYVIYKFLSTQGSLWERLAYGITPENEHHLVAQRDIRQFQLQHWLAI
T5 sequence (P10635 whole entry): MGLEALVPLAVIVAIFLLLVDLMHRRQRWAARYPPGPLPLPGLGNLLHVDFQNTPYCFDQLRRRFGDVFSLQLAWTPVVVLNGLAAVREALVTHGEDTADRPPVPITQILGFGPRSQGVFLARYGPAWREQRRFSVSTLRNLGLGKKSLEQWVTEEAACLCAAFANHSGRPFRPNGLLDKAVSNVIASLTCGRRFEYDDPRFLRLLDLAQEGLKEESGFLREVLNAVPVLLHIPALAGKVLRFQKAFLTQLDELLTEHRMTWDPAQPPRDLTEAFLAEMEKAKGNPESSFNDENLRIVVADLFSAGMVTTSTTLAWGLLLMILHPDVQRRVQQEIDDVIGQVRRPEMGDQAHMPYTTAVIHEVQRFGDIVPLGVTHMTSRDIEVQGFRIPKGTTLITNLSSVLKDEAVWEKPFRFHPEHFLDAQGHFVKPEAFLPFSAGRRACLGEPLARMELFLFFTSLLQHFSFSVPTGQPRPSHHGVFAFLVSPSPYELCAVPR

Cc1cccc2c1Oc1ccccc1C1(O)CCN(C)CC21 (racemic) [(±)-beloxepin, cis-1,2,3,4,4a,13b-hexahydro-2,10-dimethyldiben-[2,3:6,7]oxepino[4,5c]pyridine-4a-ol]]
Ki [1]: 700 nM
Ki [2]: 440 nM
5HT2A functional activity type [3]: antagonist
IC50 [3, 19]: 5200 nM
Ki [4]: 1000 nM
5HT2B functional activity type [5]: antagonist
IC50 ([5]; antagonist mode, vs 0.3 nM serotonin): > 10000 nM
Ki [6]: 830 nM
5HT2C functional activity type [7]: antagonist
IC50 [7, 19]: > 10000 nM
IC50 [8]: 536 nM
less affinity for other monoamine carriers (serotonin and dopamine transporters) than for noradrenaline reuptake [9]: greater than 100 fold
affinity for the 5HT2C receptor [10]: modest affinity
affinity for noradrenergic, histaminergic and cholinergic receptors [11]: no or very weak affinity
antidepressant properties [12]: offsetting acquired immobility behavior, reserpine-induced hypothermia, and conditioned avoidance behavior
side effects [12]: did not cause sedation, motor impairment or other untoward side effects
effect on REM sleep ([13]; acutely and sub-chronically): dose-dependently prolonged REM latency
side effects [13]: No sedation or other side effects were observed
tmax [14]: one to four
tmax, steady state ([15]; doses of 50 to 800 mg, healthy subjects): 1.17 h
adverse effects ([15]; healthy volunteers, up to 800 mg/day): No important adverse effects were observed
fraction of patients with a moderate to good response (HAMD score reduction) [16]: ⅔
efficacy in major depression [17]: insufficient efficacy
logBB [18]: 0.82
